Laboratory results taken from ChEMBL document CHEMBL1201862, “PubChem BioAssay data set” (2004).
Active and inactive are the calls of the source.

How the values were obtained:
[1] = target: ATP-dependent molecular chaperone HSP82 (Candida albicans (strain WO-1) (Yeast), UniProt C4YTQ8); experiment: steroid-induced GRE reporter decrease in yeast – S. cerevisiae, luminescence, Hsp90 inhibitor project, dose response (AID 2400); format: functional, cell-based;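 note: beta-galactosidase luminescence from glucocorticoid response element reporter as proxy for Hsp90 function; inhibitor potency where signal loss means Hsp90 inhibition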
Sequence of ATP-dependent molecular chaperone HSP82 (C4YTQ8 whole entry): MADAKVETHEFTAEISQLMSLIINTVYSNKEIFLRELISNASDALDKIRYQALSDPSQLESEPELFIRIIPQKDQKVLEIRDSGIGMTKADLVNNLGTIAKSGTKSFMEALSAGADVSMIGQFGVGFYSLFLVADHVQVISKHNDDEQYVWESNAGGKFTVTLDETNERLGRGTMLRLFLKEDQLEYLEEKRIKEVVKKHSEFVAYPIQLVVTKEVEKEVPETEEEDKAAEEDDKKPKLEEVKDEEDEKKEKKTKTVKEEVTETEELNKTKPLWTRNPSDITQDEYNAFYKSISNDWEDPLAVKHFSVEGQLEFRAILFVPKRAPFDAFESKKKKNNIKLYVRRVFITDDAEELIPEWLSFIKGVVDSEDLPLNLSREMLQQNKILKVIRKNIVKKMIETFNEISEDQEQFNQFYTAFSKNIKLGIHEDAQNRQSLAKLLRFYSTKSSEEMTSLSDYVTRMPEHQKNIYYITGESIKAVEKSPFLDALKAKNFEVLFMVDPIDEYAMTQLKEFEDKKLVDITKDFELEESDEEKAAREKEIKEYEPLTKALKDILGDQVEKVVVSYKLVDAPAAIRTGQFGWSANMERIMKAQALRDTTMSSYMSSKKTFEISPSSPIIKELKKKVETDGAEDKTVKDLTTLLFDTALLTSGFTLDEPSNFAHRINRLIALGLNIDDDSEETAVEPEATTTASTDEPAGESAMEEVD

[2] = NIH-3T3 fibroblast cytotoxicity, dose response, cytotoxicity control, cell-based, fluorescence, Alamar Blue, secondary assay (AID 2327); format: functional;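 note: NIH-3T3 mouse fibroblasts cultured with fluconazole at 8 µg/mL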
[3] = target: Serine/threonine-protein phosphatase (Candida dubliniensis (strain CD36 / CBS 7987 / NCPF 3949 / NRRLY-17841) (Yeast), UniProt B9W6M3); experiment: blockers of CaCl2-induced CDRE-lacZ signaling – S. cerevisiae, luminescence, secondary, dose response (AID 2388); format: functional, cell-based;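 note: yeast reporter cells carrying a calcineurin-responsive lacZ construct stimulated with calcium chloride; luminescent beta-galactosidase reporter signal in whole cells rather than isolated phosphatase activity; potency for inhibition where a drop in reporter signal means calcineurin blockade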
Sequence of Serine/threonine-protein phosphatase (B9W6M3 whole entry): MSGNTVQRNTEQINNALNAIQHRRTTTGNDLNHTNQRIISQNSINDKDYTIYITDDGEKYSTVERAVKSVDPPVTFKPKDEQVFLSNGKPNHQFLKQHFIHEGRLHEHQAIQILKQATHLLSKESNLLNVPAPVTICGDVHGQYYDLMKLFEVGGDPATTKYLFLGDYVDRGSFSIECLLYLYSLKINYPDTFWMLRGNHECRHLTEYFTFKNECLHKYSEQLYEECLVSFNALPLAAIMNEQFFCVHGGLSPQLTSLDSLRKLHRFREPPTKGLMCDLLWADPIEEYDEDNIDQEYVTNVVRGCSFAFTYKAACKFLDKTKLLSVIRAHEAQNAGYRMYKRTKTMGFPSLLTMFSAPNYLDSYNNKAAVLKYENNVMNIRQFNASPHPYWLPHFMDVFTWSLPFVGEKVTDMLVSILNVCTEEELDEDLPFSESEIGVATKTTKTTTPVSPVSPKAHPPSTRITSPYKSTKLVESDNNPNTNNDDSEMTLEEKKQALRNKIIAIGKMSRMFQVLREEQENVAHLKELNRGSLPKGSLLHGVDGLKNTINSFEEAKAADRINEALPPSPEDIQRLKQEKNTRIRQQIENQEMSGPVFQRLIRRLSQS

[4] = fluconazole-exposed Candida albicans growth modulators – fluorescence, retest, confirmation (AID 2467); format: functional, cell-based
[5] = target: T1, Sentrin-specific protease 6 (Homo sapiens, UniProt Q9GZR1); experiment: SAR Analysis of small molecule inhibitors of Sentrin-specific protease 6 (SENP6) using a Luminescent assay. [Related pubchem assays (depositor defined):AID2582, AID2599]; format: functional
T1 sequence (Q9GZR1 whole entry): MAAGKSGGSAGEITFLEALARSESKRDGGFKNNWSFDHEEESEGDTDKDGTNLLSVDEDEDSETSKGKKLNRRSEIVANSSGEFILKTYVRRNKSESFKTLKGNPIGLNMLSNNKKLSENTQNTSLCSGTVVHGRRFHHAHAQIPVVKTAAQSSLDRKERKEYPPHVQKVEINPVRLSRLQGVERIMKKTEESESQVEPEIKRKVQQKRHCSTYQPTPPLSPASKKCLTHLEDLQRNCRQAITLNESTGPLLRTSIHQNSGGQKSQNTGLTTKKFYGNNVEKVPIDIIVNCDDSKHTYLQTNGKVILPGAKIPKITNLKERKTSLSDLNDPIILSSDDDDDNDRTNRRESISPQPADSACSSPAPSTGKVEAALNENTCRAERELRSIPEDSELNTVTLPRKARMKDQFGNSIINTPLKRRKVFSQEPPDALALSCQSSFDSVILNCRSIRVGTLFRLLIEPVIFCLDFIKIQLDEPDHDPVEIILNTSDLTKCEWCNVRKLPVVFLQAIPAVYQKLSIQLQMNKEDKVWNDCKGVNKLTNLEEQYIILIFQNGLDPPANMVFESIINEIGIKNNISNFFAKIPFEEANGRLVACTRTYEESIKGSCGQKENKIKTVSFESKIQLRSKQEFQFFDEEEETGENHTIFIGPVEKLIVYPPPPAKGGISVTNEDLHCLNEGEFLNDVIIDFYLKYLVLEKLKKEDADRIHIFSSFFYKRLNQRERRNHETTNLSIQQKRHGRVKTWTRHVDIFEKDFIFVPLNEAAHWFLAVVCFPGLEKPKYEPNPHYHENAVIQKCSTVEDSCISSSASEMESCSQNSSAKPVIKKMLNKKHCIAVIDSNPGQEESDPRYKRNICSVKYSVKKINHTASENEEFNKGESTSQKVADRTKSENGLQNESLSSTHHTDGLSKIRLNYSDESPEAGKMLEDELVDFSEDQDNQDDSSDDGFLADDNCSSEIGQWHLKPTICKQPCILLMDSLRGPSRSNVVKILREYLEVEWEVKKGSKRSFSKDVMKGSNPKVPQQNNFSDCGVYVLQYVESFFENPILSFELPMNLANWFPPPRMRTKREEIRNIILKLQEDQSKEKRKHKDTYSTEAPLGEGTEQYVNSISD

[6] = target: T2, Sentrin-specific protease 8 (Homo sapiens, UniProt Q96LD8); experiment: inhibition of human SENP8 cleavage activity – biochemical, luminescence, SAR follow-up (AID 504501); format: functional
T2 sequence (Q96LD8 whole entry): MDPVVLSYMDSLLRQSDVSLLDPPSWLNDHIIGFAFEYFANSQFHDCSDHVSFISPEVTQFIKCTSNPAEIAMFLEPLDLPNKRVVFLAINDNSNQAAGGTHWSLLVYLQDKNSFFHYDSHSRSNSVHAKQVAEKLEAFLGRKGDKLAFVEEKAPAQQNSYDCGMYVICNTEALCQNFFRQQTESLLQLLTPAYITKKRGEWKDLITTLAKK

Caspase-3 = target: T3, Caspase-3 (Homo sapiens, UniProt P42574); experiment: SAR Analysis of small molecule inhibitors of Sentrin-specific proteases (SENPs) using a Caspase-3 Selectivity assay. [Related pubchem assays (depositor defined):AID2540, AID2599, AID434973, AID489001]; format: functional
T3 sequence (P42574 whole entry): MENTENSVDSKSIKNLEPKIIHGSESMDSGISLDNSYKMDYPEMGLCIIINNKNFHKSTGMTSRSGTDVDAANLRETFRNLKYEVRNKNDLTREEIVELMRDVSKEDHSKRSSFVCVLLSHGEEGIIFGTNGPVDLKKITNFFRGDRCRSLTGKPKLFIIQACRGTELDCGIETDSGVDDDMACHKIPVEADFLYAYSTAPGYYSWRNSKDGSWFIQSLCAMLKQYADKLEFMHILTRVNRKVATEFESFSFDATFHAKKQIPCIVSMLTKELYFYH

[7] = target: T4, Sentrin-specific protease 7 (Homo sapiens, UniProt Q9BQF6); experiment: inhibition of human SENP7 cleavage activity – biochemical, luminescence, SAR follow-up (AID 504497); format: functional
T4 sequence (Q9BQF6 whole entry): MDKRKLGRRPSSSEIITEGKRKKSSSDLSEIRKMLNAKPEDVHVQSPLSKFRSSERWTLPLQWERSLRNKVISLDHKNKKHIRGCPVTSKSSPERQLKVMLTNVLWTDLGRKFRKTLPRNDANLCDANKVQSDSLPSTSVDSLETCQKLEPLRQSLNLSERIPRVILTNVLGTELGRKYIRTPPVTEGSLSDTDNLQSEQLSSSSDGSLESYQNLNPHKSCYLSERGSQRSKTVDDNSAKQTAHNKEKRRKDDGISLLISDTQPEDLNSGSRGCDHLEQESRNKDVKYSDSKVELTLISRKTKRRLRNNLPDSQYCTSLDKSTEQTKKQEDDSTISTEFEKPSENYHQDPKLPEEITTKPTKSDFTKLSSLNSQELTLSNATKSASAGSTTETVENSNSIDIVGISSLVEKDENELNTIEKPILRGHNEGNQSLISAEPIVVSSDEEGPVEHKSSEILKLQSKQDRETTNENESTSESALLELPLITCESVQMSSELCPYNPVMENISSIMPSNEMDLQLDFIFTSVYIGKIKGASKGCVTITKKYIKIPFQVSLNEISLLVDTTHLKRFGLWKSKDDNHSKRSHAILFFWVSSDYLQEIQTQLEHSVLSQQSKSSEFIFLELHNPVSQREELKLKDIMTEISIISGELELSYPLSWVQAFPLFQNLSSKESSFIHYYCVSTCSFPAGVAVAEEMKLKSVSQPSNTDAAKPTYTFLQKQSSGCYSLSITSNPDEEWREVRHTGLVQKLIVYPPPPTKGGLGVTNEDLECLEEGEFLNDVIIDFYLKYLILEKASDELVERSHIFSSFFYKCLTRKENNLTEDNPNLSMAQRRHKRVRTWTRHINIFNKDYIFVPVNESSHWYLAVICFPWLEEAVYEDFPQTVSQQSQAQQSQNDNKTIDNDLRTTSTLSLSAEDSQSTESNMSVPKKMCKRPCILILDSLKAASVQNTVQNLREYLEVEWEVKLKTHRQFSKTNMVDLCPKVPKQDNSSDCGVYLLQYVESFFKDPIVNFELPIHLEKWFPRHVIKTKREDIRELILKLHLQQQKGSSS

Exodeoxyribonuclease V = Exodeoxyribonuclease V (Escherichia coli (strain K12), UniProt P04993+P07648+P08394); experiment: RecBCD inhibition via phage-restricted bacterial growth – absorbance, V66 E. coli, mutant T4 phage, counter-screen for AddAB inhibitor project, dose response (AID 492957); format: functional, cell-based, Escherichia coli str. K-12 substr. MG1655
[8] = Counterscreen for AddAB inhibitors: absorbance-based bacterial cell-based high throughput dose response assay for inhibitors of bacterial viability. [Related pubchem assays (depositor defined):AID435030, AID449728, AID449731, AID488942, AID488955, AID488956]; format: functional
Caspase-6 = Caspase-6 (Homo sapiens, UniProt P55212); experiment: inhibition of CASP6 peptide cleavage – biochemical, VEID-R110 fluorescence, cherry-pick, dose response (AID 720632)
Sequence of Caspase-6 (P55212 24-179 limits assumed): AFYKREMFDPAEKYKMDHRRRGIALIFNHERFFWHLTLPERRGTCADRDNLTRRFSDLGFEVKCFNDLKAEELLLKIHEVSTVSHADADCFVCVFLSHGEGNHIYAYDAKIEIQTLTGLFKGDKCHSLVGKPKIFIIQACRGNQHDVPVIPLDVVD
Sequence of Caspase-6 (P55212 194-293 limits assumed): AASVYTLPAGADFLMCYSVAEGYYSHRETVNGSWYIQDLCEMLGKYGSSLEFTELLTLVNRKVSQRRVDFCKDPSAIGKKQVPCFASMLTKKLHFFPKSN

[9] = target: T5, Replicative DNA helicase DnaB (Mycobacterium tuberculosis, UniProt P9WMR3); experiment: DnaB intein splicing inhibitors, dose response, biochemical, cell-free fluorescence (AID 449749); format: functional
T5 sequence (P9WMR3 whole entry): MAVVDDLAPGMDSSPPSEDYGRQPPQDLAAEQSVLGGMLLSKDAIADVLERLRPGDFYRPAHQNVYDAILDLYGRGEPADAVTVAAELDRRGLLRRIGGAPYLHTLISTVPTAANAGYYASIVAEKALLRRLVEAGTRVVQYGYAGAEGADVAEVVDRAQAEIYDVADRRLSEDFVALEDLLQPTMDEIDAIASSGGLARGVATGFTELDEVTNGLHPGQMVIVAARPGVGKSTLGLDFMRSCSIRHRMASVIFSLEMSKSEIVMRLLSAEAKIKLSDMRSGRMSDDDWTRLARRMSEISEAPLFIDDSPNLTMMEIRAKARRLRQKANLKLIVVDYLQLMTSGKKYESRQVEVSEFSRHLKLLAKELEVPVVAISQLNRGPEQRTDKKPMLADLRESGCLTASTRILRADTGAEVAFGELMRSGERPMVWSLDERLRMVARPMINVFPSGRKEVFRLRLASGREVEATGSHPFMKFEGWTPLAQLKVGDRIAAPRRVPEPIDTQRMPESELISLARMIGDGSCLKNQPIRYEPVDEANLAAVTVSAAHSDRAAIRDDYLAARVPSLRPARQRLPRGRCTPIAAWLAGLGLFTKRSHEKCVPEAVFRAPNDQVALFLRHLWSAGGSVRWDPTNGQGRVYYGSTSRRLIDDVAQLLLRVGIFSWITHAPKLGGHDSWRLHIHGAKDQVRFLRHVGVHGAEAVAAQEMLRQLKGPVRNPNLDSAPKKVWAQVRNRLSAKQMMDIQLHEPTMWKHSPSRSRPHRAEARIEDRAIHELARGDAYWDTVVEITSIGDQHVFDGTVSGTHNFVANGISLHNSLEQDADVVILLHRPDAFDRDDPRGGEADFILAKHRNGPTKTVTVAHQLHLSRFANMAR

[10] = target: T6, C-C chemokine receptor type 6 (Homo sapiens, UniProt P51684); experiment: antagonism of CCR6 beta-arrestin recruitment – cell-based, luminescent beta-arrestin readout, dose response (AID 504728); format: functional
T6 sequence (P51684 whole entry): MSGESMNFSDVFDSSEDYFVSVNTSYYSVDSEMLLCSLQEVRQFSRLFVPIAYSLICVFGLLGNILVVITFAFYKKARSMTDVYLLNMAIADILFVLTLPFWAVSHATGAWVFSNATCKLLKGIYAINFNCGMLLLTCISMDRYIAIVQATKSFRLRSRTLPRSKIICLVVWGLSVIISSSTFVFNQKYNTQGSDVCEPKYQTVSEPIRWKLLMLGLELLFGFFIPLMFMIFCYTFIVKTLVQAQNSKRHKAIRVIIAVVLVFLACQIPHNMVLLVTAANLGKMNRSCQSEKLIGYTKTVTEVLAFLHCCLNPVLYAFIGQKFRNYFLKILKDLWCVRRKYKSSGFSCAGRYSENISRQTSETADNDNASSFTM

Beta-galactosidase = Beta-galactosidase (Escherichia coli, UniProt Q8VNN2); experiment: detection-enzyme interference by beta-gal modulators – biochemical, E. coli enzyme, set 3, artefact control for CCR6 antagonist project, dose response (AID 504712); format: functional
Sequence of Beta-galactosidase (Q8VNN2 whole entry): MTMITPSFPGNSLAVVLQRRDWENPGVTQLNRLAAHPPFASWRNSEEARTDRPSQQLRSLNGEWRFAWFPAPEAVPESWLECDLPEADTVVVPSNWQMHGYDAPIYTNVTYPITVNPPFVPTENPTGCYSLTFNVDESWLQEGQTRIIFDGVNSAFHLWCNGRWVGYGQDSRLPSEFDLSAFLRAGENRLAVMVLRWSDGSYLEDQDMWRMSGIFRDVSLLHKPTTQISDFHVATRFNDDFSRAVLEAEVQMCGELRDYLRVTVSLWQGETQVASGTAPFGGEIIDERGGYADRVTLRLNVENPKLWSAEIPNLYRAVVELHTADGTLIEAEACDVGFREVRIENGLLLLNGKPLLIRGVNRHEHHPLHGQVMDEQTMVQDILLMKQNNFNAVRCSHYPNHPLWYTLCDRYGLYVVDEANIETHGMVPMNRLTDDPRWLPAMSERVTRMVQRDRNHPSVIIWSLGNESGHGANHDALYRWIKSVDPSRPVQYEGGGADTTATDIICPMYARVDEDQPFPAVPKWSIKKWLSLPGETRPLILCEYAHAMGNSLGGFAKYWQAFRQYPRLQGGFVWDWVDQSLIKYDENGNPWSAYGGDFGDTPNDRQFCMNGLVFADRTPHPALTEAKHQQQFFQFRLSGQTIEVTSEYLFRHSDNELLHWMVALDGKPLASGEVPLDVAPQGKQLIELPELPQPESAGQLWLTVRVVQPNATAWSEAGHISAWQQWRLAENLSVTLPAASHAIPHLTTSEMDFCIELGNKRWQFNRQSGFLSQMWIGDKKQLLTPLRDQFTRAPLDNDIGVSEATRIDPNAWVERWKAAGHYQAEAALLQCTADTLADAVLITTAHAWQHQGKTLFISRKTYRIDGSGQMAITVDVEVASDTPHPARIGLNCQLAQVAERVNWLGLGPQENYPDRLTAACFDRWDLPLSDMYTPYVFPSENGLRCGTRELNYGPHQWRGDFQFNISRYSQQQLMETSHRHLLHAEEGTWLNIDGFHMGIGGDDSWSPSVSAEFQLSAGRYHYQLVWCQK

Protein RecA = target: T7, Protein RecA (Mycobacterium tuberculosis, UniProt P9WHJ3); experiment: Fluorescence Cell-Free Homogeneous Dose Retest to Identify Inhibitors of RecA-Intein Splicing Activity. [Related pubchem assays (depositor defined):AID2097, AID2223, AID489010, AID492950]; format: functional
T7 sequence (P9WHJ3 whole entry): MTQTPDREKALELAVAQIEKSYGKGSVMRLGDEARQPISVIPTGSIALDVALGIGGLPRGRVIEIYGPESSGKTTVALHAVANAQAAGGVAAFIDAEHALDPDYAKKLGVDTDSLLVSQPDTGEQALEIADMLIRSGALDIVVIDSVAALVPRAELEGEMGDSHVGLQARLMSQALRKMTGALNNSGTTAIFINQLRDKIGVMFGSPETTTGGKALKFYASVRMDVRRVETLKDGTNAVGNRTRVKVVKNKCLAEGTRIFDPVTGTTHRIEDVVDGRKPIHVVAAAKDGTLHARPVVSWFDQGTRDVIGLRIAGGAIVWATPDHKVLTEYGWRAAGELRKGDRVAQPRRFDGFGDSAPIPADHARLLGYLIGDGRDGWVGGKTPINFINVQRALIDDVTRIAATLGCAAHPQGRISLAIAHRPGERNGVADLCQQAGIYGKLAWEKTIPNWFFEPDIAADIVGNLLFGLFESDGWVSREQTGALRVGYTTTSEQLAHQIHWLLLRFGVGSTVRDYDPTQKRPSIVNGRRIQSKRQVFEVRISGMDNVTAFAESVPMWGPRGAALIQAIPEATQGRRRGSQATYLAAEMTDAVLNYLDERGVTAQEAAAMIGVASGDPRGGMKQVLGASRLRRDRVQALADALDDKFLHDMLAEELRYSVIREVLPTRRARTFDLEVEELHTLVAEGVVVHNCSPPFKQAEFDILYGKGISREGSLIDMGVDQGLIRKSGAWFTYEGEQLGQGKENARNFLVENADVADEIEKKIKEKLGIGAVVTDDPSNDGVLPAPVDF

[11] = target: Voltage-gated inwardly rectifying potassium channel KCNH2 (Homo sapiens, UniProt Q12809); conditions: Potency;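 note: confirmatory quantitative high-throughput screen measuring inhibition of hERG channel activity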
Sequence of Voltage-gated inwardly rectifying potassium channel KCNH2 (Q12809 whole entry): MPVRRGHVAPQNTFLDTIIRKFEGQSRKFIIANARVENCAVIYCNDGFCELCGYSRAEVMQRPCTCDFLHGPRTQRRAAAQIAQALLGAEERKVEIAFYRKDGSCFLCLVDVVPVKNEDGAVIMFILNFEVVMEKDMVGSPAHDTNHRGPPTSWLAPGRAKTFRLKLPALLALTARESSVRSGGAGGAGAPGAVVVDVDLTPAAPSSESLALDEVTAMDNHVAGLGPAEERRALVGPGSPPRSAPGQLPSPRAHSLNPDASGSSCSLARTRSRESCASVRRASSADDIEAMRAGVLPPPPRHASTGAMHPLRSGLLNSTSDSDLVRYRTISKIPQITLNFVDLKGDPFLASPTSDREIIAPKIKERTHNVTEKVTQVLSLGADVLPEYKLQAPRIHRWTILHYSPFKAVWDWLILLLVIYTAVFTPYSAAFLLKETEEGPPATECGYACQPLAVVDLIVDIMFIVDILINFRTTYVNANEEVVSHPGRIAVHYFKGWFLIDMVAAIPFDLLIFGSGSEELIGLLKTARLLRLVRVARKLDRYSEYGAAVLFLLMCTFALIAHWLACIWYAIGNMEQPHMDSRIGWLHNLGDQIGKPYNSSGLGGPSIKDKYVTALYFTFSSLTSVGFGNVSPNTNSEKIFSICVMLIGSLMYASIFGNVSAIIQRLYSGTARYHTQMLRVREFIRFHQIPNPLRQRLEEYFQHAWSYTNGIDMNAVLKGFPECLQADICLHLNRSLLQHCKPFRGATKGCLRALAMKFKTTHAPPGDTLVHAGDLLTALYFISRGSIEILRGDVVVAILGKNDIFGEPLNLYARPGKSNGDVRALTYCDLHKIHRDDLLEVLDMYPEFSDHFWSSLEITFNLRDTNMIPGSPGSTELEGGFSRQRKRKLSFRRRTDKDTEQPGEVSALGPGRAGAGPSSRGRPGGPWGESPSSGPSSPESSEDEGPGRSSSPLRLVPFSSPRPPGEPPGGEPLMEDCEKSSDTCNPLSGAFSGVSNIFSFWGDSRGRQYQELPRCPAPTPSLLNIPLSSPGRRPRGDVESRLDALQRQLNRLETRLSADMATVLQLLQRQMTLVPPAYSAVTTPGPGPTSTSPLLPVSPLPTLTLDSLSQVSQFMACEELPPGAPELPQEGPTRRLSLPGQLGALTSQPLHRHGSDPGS

CCN=C(S)NNC(=O)c1cc(-c2cc(C)ccc2C)nc2ccccc12
EC50 [1]: > 150 µM (inactive) | EC50 [2]: 129 µM (active) | EC50 [3]: > 180 µM (inactive) | EC50 [4]: 0.296 µM (active)

COc1cc(OC)cc(-c2noc(/C=C/c3ccccc3Cl)n2)c1
IC50 [5]: > 99 µM (inactive) | IC50 [6]: > 99 µM (inactive) | IC50 (Caspase-3): > 99 µM (inactive) | IC50 [7]: > 99 µM (inactive)

O=[N+]([O-])c1cc(O)c2ncccc2c1
IC50 (Exodeoxyribonuclease V): 62.3 µM (inactive) | IC50 [8]: 41.5 µM (inactive) | AC50 (Caspase-6): 17.3 µM (active) | EC50 [1]: 18.5 µM (active) | AC50 [9]: 6.95 µM (active) | EC50 [2]: 42.1 µM (active) | IC50 [10]: > 66.6 µM (inactive) | IC50 (Beta-galactosidase): > 66.6 µM (inactive) | EC50 [3]: > 180 µM (inactive) | EC50 [4]: 0.706 µM (active) | EC50 (Protein RecA): 4.6 µM (active)

CCCCNCC
AC50 [11]: 31.6 µM (inconclusive)
